The record followed here is patent US20160244436A1, “NOVEL FUNCTIONALIZED 5-(PHENOXYMETHYL)-1,3-DIOXANE ANALOGS EXHIBITING CYTOCHROME P450 INHIBITION AND THEIR METHOD OF USE” (CORTENDO AB (PUBL), priority 2013, published 2016).

One data set deals with T1, recombinant CYP-17 (Homo sapiens, UniProt P05093).
T1 construct: expressed in transfected cells; host or cells: AD293
T1 sequence (P05093 1-508): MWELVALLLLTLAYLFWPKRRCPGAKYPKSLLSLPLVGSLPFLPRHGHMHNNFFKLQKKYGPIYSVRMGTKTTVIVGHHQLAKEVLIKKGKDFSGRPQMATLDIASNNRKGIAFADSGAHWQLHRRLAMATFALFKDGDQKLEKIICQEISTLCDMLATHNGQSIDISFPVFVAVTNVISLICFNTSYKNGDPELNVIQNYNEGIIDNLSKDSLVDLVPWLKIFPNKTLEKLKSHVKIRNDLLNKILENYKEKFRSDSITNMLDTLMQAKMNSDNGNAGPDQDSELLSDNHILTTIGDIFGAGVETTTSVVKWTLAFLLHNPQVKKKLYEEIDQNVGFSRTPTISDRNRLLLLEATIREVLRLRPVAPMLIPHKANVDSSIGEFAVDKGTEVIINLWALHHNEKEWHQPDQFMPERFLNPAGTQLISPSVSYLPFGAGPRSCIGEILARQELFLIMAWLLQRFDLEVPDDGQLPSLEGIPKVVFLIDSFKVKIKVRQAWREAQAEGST
As to the kind of experiment: Cyp17 assay: AD293 cells over-expressing recombinant CYP-17, 3H-acetic acid release from [21-3H] 17α-hydroxyl-Pregnenolone. In kind it is cell-based. As to the method: Cyp17 assay protocol: AD293 cells that stably over-express recombinant CYP-17 were seeded in 96 well plates coated with poly D-lysine (15,000 cell per well) and incubated at 37° C. for 24 hours in Dulbecco's Modified Eagle Medium (DMEM) with Fetal Bovine Serum (FBS) that is stripped of hormones by charcoal treatment. The media is then removed, the cells are washed once with Phosphate buffer saline solution, and 50 μL Dulbecco's Modified Eagle Medium (DMEM) with Fetal Bovine Serum (FBS) that is stripped of hormones by charcoal treatment is added. Compounds of the disclosure are then added to the wells in eight concentration spanning 10 μM to 4.5 nM, and the plates are incubated for an additional 60 minutes at 37° C. [21-^3H] 17α-hydroxyl-Pregnenolone is then added (50 nCi per well, 31.25 nM) and the plates are incubated for an additional 4 hours at 37° C. The media is then collected, 200 μL, of chloroform is added, and the mixture is shaken for 1 hour. The aqueous layer is then separated and analyzed for the presence of ^3H-acetic acid using a Perkin Elmer Topcount NXT to determine IC50s of the compounds of the disclosure.

Another data set addresses T2, recombinant CYP-11 (Homo sapiens, UniProt P15538).
T2 construct: expressed in transfected cells; host or cells: AD293
T2 sequence (P15538 25-503): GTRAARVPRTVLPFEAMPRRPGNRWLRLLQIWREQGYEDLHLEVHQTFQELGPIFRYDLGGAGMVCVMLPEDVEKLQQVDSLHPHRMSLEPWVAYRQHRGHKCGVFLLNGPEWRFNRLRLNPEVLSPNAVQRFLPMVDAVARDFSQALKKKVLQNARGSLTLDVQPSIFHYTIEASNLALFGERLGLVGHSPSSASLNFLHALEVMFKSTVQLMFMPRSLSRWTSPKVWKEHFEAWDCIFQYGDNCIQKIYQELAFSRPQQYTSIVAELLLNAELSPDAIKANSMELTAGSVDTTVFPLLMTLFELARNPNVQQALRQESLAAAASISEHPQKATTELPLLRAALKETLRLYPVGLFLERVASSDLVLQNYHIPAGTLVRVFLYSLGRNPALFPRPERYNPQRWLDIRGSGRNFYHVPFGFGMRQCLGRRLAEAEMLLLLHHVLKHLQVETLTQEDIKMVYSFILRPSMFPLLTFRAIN
Put plainly: Cyp11 assay: AD293 cells over-expressing recombinant CYP-11, cortisol formation from 11-deoxycortisol by LC/MS. The format is cell-based. As to the method: Cyp11 assay protocol: AD293 cells that stably over-express recombinant CYP-11 were seeded in 96 well plates coated with poly D-lysine (15,000 cell per well) and incubated at 37° C. for 24 hours in Dulbecco's Modified Eagle Medium (DMEM) with Fetal Bovine Serum (FBS) that is stripped of hormones by charcoal treatment. The media is then removed, the cells are washed once with Phosphate buffer saline solution, and 50 μL Dulbecco's Modified Eagle Medium (DMEM) with Fetal Bovine Serum (FBS) that is stripped of hormones by charcoal treatment is added. Compounds of the disclosure are then added to the wells in eight concentration spanning 10 μM to 4.5 nM, and the plates are incubated for an additional 60 minutes at 37° C. 11-deoxycortisol is then added (2.0 μM) and the plates are incubated for an additional 12 hours at 37° C. After incubation, 50 uL of the supernatant (medium) is transferred into a fresh plate and 150 uL of an acetonitrile solution containing 200 ng/ml of Telmisartan is added. The sample is mixed and then placed in a centrifuge at 2000 rpm for 5 minutes. 100 uL of the supernatant is transferred into a fresh 96 well deep well plate, 100 uL of 1:1 methanol:water was added, the solution was mixed and then analyzed by LC/MS for the presence of cortisol using an Agilent 1200 RRLC/ABSCIEX API4000 LC-MS or Shimadzu Prominance/ABSCIEX API4000 LC-MS to determine IC5os of the compounds of the disclosure.

In the next data set the target is T3, recombinant CYP-21 (Homo sapiens, UniProt P08686).
T3 construct: expressed in transfected cells; host or cells: AD293
T3 sequence (P08686 1-495): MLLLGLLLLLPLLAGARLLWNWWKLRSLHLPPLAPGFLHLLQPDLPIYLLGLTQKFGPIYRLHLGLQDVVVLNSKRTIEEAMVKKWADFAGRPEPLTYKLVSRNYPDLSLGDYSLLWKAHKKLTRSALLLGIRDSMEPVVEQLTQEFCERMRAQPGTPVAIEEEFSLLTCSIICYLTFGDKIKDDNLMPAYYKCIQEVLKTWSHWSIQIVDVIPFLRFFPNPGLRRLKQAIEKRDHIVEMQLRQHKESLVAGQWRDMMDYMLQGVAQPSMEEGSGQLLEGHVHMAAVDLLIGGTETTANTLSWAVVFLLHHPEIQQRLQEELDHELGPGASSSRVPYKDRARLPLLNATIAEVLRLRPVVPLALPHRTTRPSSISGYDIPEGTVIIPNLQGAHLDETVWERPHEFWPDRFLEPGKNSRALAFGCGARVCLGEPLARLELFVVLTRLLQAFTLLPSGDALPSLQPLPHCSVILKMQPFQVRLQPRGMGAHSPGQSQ
As to the kind of experiment: Cyp21 assay: AD293 cells over-expressing recombinant CYP-21, 11-deoxycortisol formation from 17α-OH Progesterone by LC/MS. In kind it is cell-based. As to the method: Cyp21 assay protocol: AD293 cells that stably over-express recombinant CYP-21 were seeded in 96 well plates coated with poly D-lysine (10,000 cell per well) and incubated at 37° C. for 24 hours in Dulbecco's Modified Eagle Medium (DMEM) with Fetal Bovine Serum (FBS) that is stripped of hormones by charcoal treatment. The media is then removed, the cells are washed once with Phosphate buffer saline solution, and 50 μL Dulbecco's Modified Eagle Medium (DMEM) with Fetal Bovine Serum (FBS) that is stripped of hormones by charcoal treatment is added. Compounds of the disclosure are then added to the wells in eight concentration spanning 10 μM to 4.5 nM, and the plates are incubated for an additional 60 minutes at 37° C. 17α-OH Progesterone is then added (1.0 μM) and the plates are incubated for an additional 45 minutes at 37° C. After incubation, 50 uL of the supernatant (medium) is transferred into a fresh plate and 150 uL of an acetonitrile solution containing 200 ng/ml of Telmisartan is added. The sample is mixed and then placed in a centrifuge at 2000 rpm for 5 minutes. 100 uL of the supernatant is transferred into a fresh 96 well deep well plate, 100 uL of 1:1 methanol:water was added, the solution was mixed and then analyzed by LC/MS for the presence of 11-deoxycortisol using an Agilent 1200 RRLC/ABSCIEX API4000 LC-MS or Shimadzu Prominance/ABSCIEX API4000 LC-MS to determine IC5os of the compounds of the disclosure.

A short description of data set [1]: Pharmacokinetic studies in the guinea pig (1 mg/kg IV, 10 mg/kg oral). The format is in vivo. As for the experimental part: Pharmacokinetic studies in the guinea pig were run using 1 mg/kg IV dosing (20% DMA, 40% TEG, 40% water) and 10 mg/kg oral dosing (2% Tween-80, 98% HPMC (1% water)).

On to `Clc1ccccc1[C@]1(Cn2ccnc2)OC[C@@H](OCc2ccc(-c3ccncc3)cc2)CO1` [Example 510017], for which the IC50 is 42 nM at recombinant CYP-17, 440 nM on recombinant CYP-11 and 391 nM at recombinant CYP-21.
With `CCOC(=O)CNC(=O)N1CCN(c2ccc(CO[C@H]3CO[C@](Cn4ccnc4)(c4ccccc4Cl)OC3)cc2)CC1` [Example 510018], the IC50 on recombinant CYP-17 worked out at 40 nM; at recombinant CYP-11 it was 107 nM; on recombinant CYP-21, 2800 nM.
Take `CC(=O)N1CCN(c2ccc(CO[C@H]3CO[C@](Cn4ccnc4)(c4ccc(Cl)cc4Cl)OC3)cc2)CC1` [drawing 113]: the bioavailability in data set [1] (in vivo, 10 mg/kg oral vs 1 mg/kg IV) stood at 184%. In data set [1] (oral, 10 mg/kg), this compound showed an AUC0-inf of 14891 ng·h/mL, an AUC0-last of 8231 ng·h/mL, an AUCExtra of 43.93% and a Cmax of 1018 ng/mL. Moreover, in data set [1] (oral, 10 mg/kg), the MRT0-last amounted to 5.56 h, the Tmax amounted to 3 h and the t1/2 is 6.0 h. Also, the “DNAUC (0-inf)” value in data set [1] (oral, 10 mg/kg, dose-normalised AUC) came out at 823.1. In data set [1] (oral, 10 mg/kg, fit of terminal phase), this compound yielded a Rsq of 0.91.

One may read the IC50 as the concentration that gives 50% inhibition. Usually Cmax stands for the maximum level reached in the sampled fluid or tissue. One may read the Tmax as the time at which the peak concentration occurs.
